Test: SAD study: cardiac safety (ECG, telemetry, QTcF prolongation)

**Q.** Which results are given for `CCC(=O)C(C[C@H](C)N(C)C)(c1ccccc1)c1ccccc1` [d-methadone]?
**A.** QTcF Reading 1 (100 mg, subject 9056, 0.5 h): 415 ms; QTcF Reading 2 (100 mg, subject 9056, 0.5 h): 424 ms; QTcF Reading 3 (100 mg, subject 9056, 0.5 h): 436 ms; QTcF Average (100 mg, subject 9056, 2 h): 439 ms; QTcF Reading 1 (100 mg, subject 9056, 2 h): 445 ms; QTcF Reading 2 (100 mg, subject 9056, 2 h): 426 ms; QTcF Reading 3 (100 mg, subject 9056, 2 h): 446 ms; QTcF Average (100 mg, subject 9056, 3 h): 442 ms; QTcF Reading 1 (100 mg, subject 9056, 3 h): 453 ms; QTcF Reading 2 (100 mg, subject 9056, 3 h): 443 ms; QTcF Reading 3 (100 mg, subject 9056, 3 h): 429 ms; QTcF Average (100 mg, subject 9056, 5 h): 429 ms; QTcF Reading 1 (100 mg, subject 9056, 5 h): 419 ms; QTcF Reading 2 (100 mg, subject 9056, 5 h): 448 ms; QTcF Reading 3 (100 mg, subject 9056, 5 h): 419 ms; QTcF Average (100 mg, subject 9056, 8 h): 446 ms; QTcF Reading 1 (100 mg, subject 9056, 8 h): 436 ms; QTcF Reading 2 (100 mg, subject 9056, 8 h): 457 ms; QTcF Reading 3 (100 mg, subject 9056, 8 h): 444 ms; QTcF Average (100 mg, subject 9056, 24 h): 432 ms; QTcF Reading 1 (100 mg, subject 9056, 24 h): 432 ms; QTcF Reading 2 (100 mg, subject 9056, 24 h): 431 ms; QTcF Reading 3 (100 mg, subject 9056, 24 h): 434 ms; QTcF Average (100 mg, subject 9056, 48 h): 422 ms; QTcF Reading 1 (100 mg, subject 9056, 48 h): 418 ms; QTcF Reading 2 (100 mg, subject 9056, 48 h): 433 ms; QTcF Reading 3 (100 mg, subject 9056, 48 h): 416 ms; Overall ECG result Abnormal, NCS (150 mg (N = 6), 0.5 h): 1 (16.7) n (%); Overall ECG result Normal (150 mg (N = 6), 0.5 h): 5 (83.3) n (%); Overall ECG result Abnormal, NCS (150 mg (N = 6), 1 h): 2 (33.3) n (%); Overall ECG result Normal (150 mg (N = 6), 1 h): 4 (66.7) n (%); Overall ECG result Abnormal, NCS (150 mg (N = 6), 2 h): 2 (33.3) n (%); Overall ECG result Normal (150 mg (N = 6), 2 h): 4 (66.7) n (%); Overall ECG result Abnormal, NCS (150 mg (N = 6), 3 h): 4 (66.7) n (%); Overall ECG result Normal (150 mg (N = 6), 3 h): 2 (33.3) n (%); Overall ECG result Abnormal, NCS (150 mg (N = 6), 5 h): 2 (33.3) n (%); Overall ECG result Normal (150 mg (N = 6), 5 h): 4 (66.7) n (%); Overall ECG result Abnormal, NCS (150 mg (N = 6), 8 h): 2 (33.3) n (%); Overall ECG result Normal (150 mg (N = 6), 8 h): 4 (66.7) n (%); Overall ECG result Abnormal, NCS (150 mg (N = 6), 12 h): 2 (33.3) n (%); Overall ECG result Normal (150 mg (N = 6), 12 h): 4 (66.7) n (%); Overall ECG result Abnormal, NCS (150 mg (N = 6), 24 h): 1 (16.7) n (%); Overall ECG result Normal (150 mg (N = 6), 24 h): 5 (83.3) n (%); Overall ECG result Abnormal, NCS (150 mg (N = 6), 48 h): 1 (16.7) n (%); Overall ECG result Normal (150 mg (N = 6), 48 h): 5 (83.3) n (%); Overall ECG result Abnormal, NCS (150 mg (N = 6), 72 h): 0 n (%); Overall ECG result Normal (150 mg (N = 6), 72 h): 6 (100) n (%); Overall ECG result Abnormal, NCS (150 mg (N = 6), Visit 3): 0 n (%); Overall ECG result Normal (150 mg (N = 6), Visit 3): 6 (100) n (%); QTcF Average (150 mg, subject 9088, 3 h): 422 ms; QTcF Reading 1 (150 mg, subject 9088, 3 h): 410 ms; QTcF Reading 2 (150 mg, subject 9088, 3 h): 434 ms; QTcF Reading 3 (150 mg, subject 9088, 3 h): 423 ms; QTcF Average (150 mg, subject 9088, 12 h): 430 ms; QTcF Reading 1 (150 mg, subject 9088, 12 h): 434 ms; QTcF Reading 2 (150 mg, subject 9088, 12 h): 427 ms; QTcF Reading 3 (150 mg, subject 9088, 12 h): 429 ms; QTcF Average (150 mg, subject 9099, 3 h): 429 ms; QTcF Reading 1 (150 mg, subject 9099, 3 h): 420 ms; QTcF Reading 2 (150 mg, subject 9099, 3 h): 431 ms; QTcF Reading 3 (150 mg, subject 9099, 3 h): 435 ms; QTcF Average (150 mg, subject 9099, 5 h): 436 ms; QTcF Reading 1 (150 mg, subject 9099, 5 h): 437 ms; QTcF Reading 2 (150 mg, subject 9099, 5 h): 440 ms; QTcF Reading 3 (150 mg, subject 9099, 5 h): 431 ms; Overall ECG result Abnormal, NCS (200 mg (N = 1), 0.5 h): 1 (100) n (%); Overall ECG result Normal (200 mg (N = 1), 0.5 h): 0 n (%); Overall ECG result Abnormal, NCS (200 mg (N = 1), 1 h): 1 (100) n (%); Overall ECG result Normal (200 mg (N = 1), 1 h): 0 n (%); Overall ECG result Abnormal, NCS (200 mg (N = 1), 2 h): 1 (100) n (%); Overall ECG result Normal (200 mg (N = 1), 2 h): 0 n (%); Overall ECG result Abnormal, NCS (200 mg (N = 1), 3 h): 1 (100) n (%); Overall ECG result Normal (200 mg (N = 1), 3 h): 0 n (%); Overall ECG result Abnormal, NCS (200 mg (N = 1), 5 h): 1 (100) n (%); Overall ECG result Normal (200 mg (N = 1), 5 h): 0 n (%); Overall ECG result Abnormal, NCS (200 mg (N = 1), 8 h): 0 n (%); Overall ECG result Normal (200 mg (N = 1), 8 h): 1 (100) n (%); Overall ECG result Abnormal, NCS (200 mg (N = 1), 12 h): 0 n (%); Overall ECG result Normal (200 mg (N = 1), 12 h): 1 (100) n (%); Overall ECG result Abnormal, NCS (200 mg (N = 1), 24 h): 1 (100) n (%); Overall ECG result Normal (200 mg (N = 1), 24 h): 0 n (%); Overall ECG result Abnormal, NCS (200 mg (N = 1), 48 h): 0 n (%); Overall ECG result Normal (200 mg (N = 1), 48 h): 1 (100) n (%); Overall ECG result Abnormal, NCS (200 mg (N = 1), 72 h): 0 n (%); Overall ECG result Normal (200 mg (N = 1), 72 h): 1 (100) n (%); Overall ECG result Abnormal, NCS (200 mg (N = 1), Visit 3): 0 n (%); Overall ECG result Normal (200 mg (N = 1), Visit 3): 1 (100) n (%); QTcF Average (200 mg, subject 9078, 3 h): 426 ms; QTcF Reading 1 (200 mg, subject 9078, 3 h): 441 ms; QTcF Reading 2 (200 mg, subject 9078, 3 h): 422 ms; QTcF Reading 3 (200 mg, subject 9078, 3 h): 416 ms; ECG abnormal result: QTcF prolongation (SAD 5 mg, 1 h): 1 (16.7) n (%); ECG abnormal result: QTcF prolongation (SAD 5 mg, 2 h): 2 (33.3) n (%); ECG abnormal result: QTcF prolongation (SAD 5 mg, 3 h): 1 (16.7) n (%); ECG abnormal result: QTcF prolongation (SAD 5 mg, 5 h): 2 (33.3) n (%); ECG abnormal result: QTcF prolongation (SAD 5 mg, total): 3 (50.0) n (%); ECG abnormal result: QTcF prolongation (SAD 20 mg, total): 0 n (%); ECG abnormal result: QTcF prolongation (SAD 60 mg, total): 0 n (%); ECG abnormal result: QTcF prolongation (SAD 100 mg, 0.5 h): 1 (16.7) n (%); ECG abnormal result: QTcF prolongation (SAD 100 mg, 2 h): 1 (16.7) n (%); ECG abnormal result: QTcF prolongation (SAD 100 mg, 3 h): 1 (16.7) n (%); ECG abnormal result: QTcF prolongation (SAD 100 mg, 5 h): 1 (16.7) n (%); ECG abnormal result: QTcF prolongation (SAD 100 mg, 8 h): 1 (16.7) n (%); ECG abnormal result: QTcF prolongation (SAD 100 mg, 24 h): 1 (16.7) n (%); ECG abnormal result: QTcF prolongation (SAD 100 mg, 48 h): 1 (16.7) n (%); ECG abnormal result: QTcF prolongation (SAD 100 mg, total): 1 (16.7) n (%); ECG abnormal result: QTcF prolongation (SAD 150 mg, 3 h): 2 (33.3) n (%); ECG abnormal result: QTcF prolongation (SAD 150 mg, 5 h): 1 (16.7) n (%); ECG abnormal result: QTcF prolongation (SAD 150 mg, 12 h): 1 (16.7) n (%); ECG abnormal result: QTcF prolongation (SAD 150 mg, total): 2 (33.3) n (%); ECG abnormal result: QTcF prolongation (SAD 200 mg (N=1), 3 h): 1 (100) n (%); ECG abnormal result: QTcF prolongation (SAD 200 mg (N=1), total): 1 (100) n (%); Dose relation of QTcF prolongation (SAD study): no dose-related effects were observed; Maximum QTcF interval observed (SAD study, Subject 9056): 457 ms

— patent publication US20180214395A1 (priority 2017, published 2018)
